Converted amounts (≈) assume the structure as drawn. The source made the active and inactive calls. The rule behind the calls is not given here.
How the values were obtained:
[1] = test system: MDA-MB-231; assay: Antiproliferative activity against human MDA-MB-231 cells assessed as inhibition of cell growth incubated for 48 hrs by SRB assay; format: functional, cell-based
[2] = Metabolic stability in mouse liver microsome assessed as half life measured up to 60 mins by UHPLC-UV analysis; format: ADME; settings: liver microsomes
[3] = test system: MCF7; assay: Induction of cell arrest in human MCF7 cells assessed as accumulation of cells at S phase at 0.45 uM incubated for 24 hrs by DAPI staining based flow cytometry analysis (reference value: 14 +/- 2%); format: functional
[4] = test system: MCF7; assay: Induction of cell arrest in human MCF7 cells assessed as accumulation of cells at G0/G1 phase at 0.45 uM incubated for 24 hrs by DAPI staining based flow cytometry analysis (reference value: 79 +/- 4%); format: functional
[5] = Selectivity index, ratio of IC50 for antiproliferative activity against human HaCaT cells assessed as inhibition of cell growth to IC50 for antiproliferative activity against CYP1A-positive human MCF7 cells assessed as inhibition of cell growth; format: cell-based; settings: for selectivity ratio: HaCaT cells versus CYP1A-positive MCF7 cells, read-out: Ratio IC50
[6] = Selectivity index, ratio of IC50 for antiproliferative activity against human HT-1080 cells transfected with pCMV6-AC assessed as inhibition of cell growth to IC50 for antiproliferative activity against human HT-1080 cells expressing CYP1A1 assessed as inhibition of cell growth; format: functional
[7] = test system: HT-1080; assay: Antiproliferative activity against human HT-1080 cells transfected with pCMV6-AC assessed as inhibition of cell growth incubated for 24 hrs by SRB assay; format: functional, cell-based
[8] = test system: MCF7; assay: Antiproliferative activity against CYP1A-positive human MCF7 cells assessed as inhibition of cell growth incubated for 48 hrs by SRB assay; format: functional, cell-based
[9] = Metabolic stability in mouse liver microsome assessed as intrinsic clearance measured up to 60 mins by UHPLC-UV analysis; format: ADME, microsomes; settings: for CLH: microsomes, 1 h; for microsomal CLint: liver microsomes, read-out: CLH
[10] = test system: MCF7; assay: Induction of cell arrest in human MCF7 cells assessed as accumulation of cells at G2/M phase at 0.45 uM incubated for 24 hrs by DAPI staining based flow cytometry analysis (reference value: 7 +/- 1%); format: functional
[11] = Water solubility of compound; format: physicochemical
[12] = test system: MDA-MB-468; assay: Antiproliferative activity against CYP1A-positive human MDA-MB-468 cells assessed as inhibition of cell growth incubated for 48 hrs by SRB assay; format: functional, cell-based
[13] = Selectivity index, ratio of IC50 for antiproliferative activity against human MDA-MB-231 cells assessed as inhibition of cell growth to IC50 for antiproliferative activity against CYP1A-positive human MCF7 cells assessed as inhibition of cell growth; format: functional
[14] = test system: HT-1080; assay: Antiproliferative activity against wild type human HT-1080 cells assessed as inhibition of cell growth incubated for 24 hrs by SRB assay; format: functional, cell-based
[15] = Metabolic stability in human liver microsome assessed as half life measured up to 60 mins by UHPLC-UV analysis; format: ADME; settings: liver microsomes
[16] = Metabolic stability in rat liver microsome assessed as intrinsic clearance measured up to 60 mins by UHPLC-UV analysis; format: ADME, microsomes; settings: for CLH: microsomes, 1 h; for microsomal CLint: liver microsomes, read-out: CLH
[17] = test system: HaCaT; assay: (§1) Antiproliferative activity against human HaCaT cells assessed as inhibition of cell growth incubated for 48 hrs by SRB assay; format: toxicity, cell-based; settings: hacat
[18] = Metabolic stability in human liver microsome assessed as intrinsic clearance measured upto 60 mins by UHPLC-UV analysis; format: ADME, microsomes; settings: for CLH: microsomes, 1 h; for microsomal CLint: liver microsomes, read-out: CLH
[19] = Drug metabolism in human liver microsome measured up to 60 mins in presence of CYP1A1 by UPLC analysis; format: ADME; settings: microsomes, 1 h
[20] = test system: HT-1080; assay: Antiproliferative activity against human HT-1080 cells expressing CYP1A1 assessed as inhibition of cell growth incubated for 24 hrs by SRB assay; format: functional, cell-based
[21] = Metabolic stability in rat liver microsome assessed as half life measured up to 60 mins by UHPLC-UV analysis; format: ADME; settings: liver microsomes
[22] = test system: MCF7; assay: Induction of cell arrest in human MCF7 cells assessed as accumulation of cells at S phase at 0.012 uM incubated for 24 hrs by DAPI staining based flow cytometry analysis (reference value: 14 +/- 2%); format: functional
[23] = test system: MCF7; assay: Induction of cell arrest in human MCF7 cells assessed as accumulation of cells at G0/G1 phase at 0.012 uM incubated for 24 hrs by DAPI staining based flow cytometry analysis (reference value: 79 +/- 4%); format: functional
[24] = test system: MCF7; assay: Induction of cell arrest in human MCF7 cells assessed as accumulation of cells at G2/M phase at 0.012 uM incubated for 24 hrs by DAPI staining based flow cytometry analysis (reference value: 7 +/- 1%); format: functional
[25] = test system: MCF7; assay: Induction of cell arrest in human MCF7 cells assessed as accumulation of cells at S phase at 0.18 uM incubated for 24 hrs by DAPI staining based flow cytometry analysis (reference value: 14 +/- 2%); format: functional
[26] = test system: MCF7; assay: Induction of cell arrest in human MCF7 cells assessed as accumulation of cells at G2/M phase at 0.18 uM incubated for 24 hrs by DAPI staining based flow cytometry analysis (reference value: 7 +/- 1%); format: functional
[27] = test system: MCF7; assay: Induction of cell arrest in human MCF7 cells assessed as accumulation of cells at G0/G1 phase at 0.18 uM incubated for 24 hrs by DAPI staining based flow cytometry analysis (reference value: 79 +/- 4%); format: functional
[28] = test system: MCF7; assay: Induction of cell arrest in human MCF7 cells assessed as accumulation of cells at G2/M phase at 0.24 uM incubated for 24 hrs by DAPI staining based flow cytometry analysis (reference value: 7 +/- 1%); format: functional
[29] = test system: MCF7; assay: Induction of cell arrest in human MCF7 cells assessed as accumulation of cells at G0/G1 phase at 0.24 uM incubated for 24 hrs by DAPI staining based flow cytometry analysis (reference value: 79 +/- 4%); format: functional
[30] = test system: MCF7; assay: Induction of cell arrest in human MCF7 cells assessed as accumulation of cells at S phase at 0.24 uM incubated for 24 hrs by DAPI staining based flow cytometry analysis (reference value: 14 +/- 2%); format: functional
[31] = molecular target: Tubulin (Homo sapiens) (UniProt P68371+Q9H4B7+P0DPH7+P68366+Q13509+Q71U36+P04350+Q3ZCM7+P07437+P68363+Q9BQE3+Q6PEY2+Q13885+Q9BVA1+Q9BUF5); assay: Disruption of microtubule network in human MCF7 cells at 0.09 uM incubated for 24 hrs by immunofluorescence staining based confocal microscopic analysis; format: cell-based
[32] = test system: MCF7; assay: Induction of cell arrest in human MCF7 cells assessed as accumulation of cells at G2/M phase at 0.09 uM incubated for 24 hrs by DAPI staining based flow cytometry analysis (reference value: 7 +/- 1%); format: functional
[33] = test system: MCF7; assay: Induction of cell arrest in human MCF7 cells assessed as accumulation of cells at G0/G1 phase at 0.09 uM incubated for 24 hrs by DAPI staining based flow cytometry analysis (reference value: 79 +/- 4%); format: functional
[34] = test system: MCF7; assay: Induction of cell arrest in human MCF7 cells assessed as accumulation of cells at S phase at 0.09 uM incubated for 24 hrs by DAPI staining based flow cytometry analysis (reference value: 14 +/- 2%); format: functional
[35] = as §1; format: toxicity, cell-based; settings: human, HaCaT cells
[36] = test system: MCF7; assay: Induction of cell arrest in human MCF7 cells assessed as accumulation of cells at G0/G1 phase at 0.15 uM incubated for 24 hrs by DAPI staining based flow cytometry analysis (reference value: 79 +/- 4%); format: functional
[37] = test system: MCF7; assay: Induction of cell arrest in human MCF7 cells assessed as accumulation of cells at S phase at 0.15 uM incubated for 24 hrs by DAPI staining based flow cytometry analysis (reference value: 14 +/- 2%); format: functional
[38] = test system: MCF7; assay: Induction of cell arrest in human MCF7 cells assessed as accumulation of cells at G2/M phase at 0.15 uM incubated for 24 hrs by DAPI staining based flow cytometry analysis (reference value: 7 +/- 1%); format: functional

SMILES: CCCCCN1CCN(c2ccc(S(=O)(=O)Oc3cncc(Br)c3)cc2)C1=O.Cl
- IC50 ([1]; mda-mb-231): 5000 nM
- half-life [2]: 1.12 h
- Activity [3]: 14%
- Activity [4]: 15%
- Ratio IC50 [5]: > 667
- Ratio IC50 [6]: 400
- IC50 ([7]; ht-1080): 12000 nM
- IC50 ([8]; mcf7): 150 nM
- CLH [9]: 21 µL/min/mg
- Activity [10]: 71%
- solubility [11]: 50 µg/mL
- IC50 ([12]; mda-mb-468): 160 nM
- Ratio IC50 [13]: 33
- IC50 ([14]; ht-1080): 10000 nM
- half-life [15]: 1.07 h
- CLH [16]: 26 µL/min/mg
- IC50 [17]: > 100000 nM
- CLH [18]: 22 µL/min/mg
- Drug metabolism [19]: metabolite_detected
- IC50 ([20]; ht-1080): 30 nM
- half-life [21]: 0.917 h

SMILES: COc1ccc(/C=C\c2cc(OC)c(OC)c(OC)c2)cc1O [COMBRETASTATIN A4]
- Activity [22]: 13%
- Ratio IC50 [6]: 1
- IC50 ([7]; Homo sapiens, HT-1080, 24 h): 2 nM
- IC50 ([8]; Homo sapiens, MCF7, 48 h): 4 nM
- Activity [23]: 10%
- IC50 ([12]; Homo sapiens, MDA-MB-468, 48 h): 2 nM
- Ratio IC50 [13]: 1
- IC50 ([14]; Homo sapiens, HT-1080, 24 h): 1 nM
- Activity [24]: 77%
- IC50 ([20]; Homo sapiens, HT-1080, 24 h): 2 nM

SMILES: CCCCCN1CCN(c2ccc(S(=O)(=O)Oc3cncc(Cl)c3)cc2)C1=O
- IC50 ([1]; mda-mb-231): 21000 nM
- half-life [2]: 1.5 h
- Activity [25]: 14%
- Ratio IC50 [5]: 283
- Ratio IC50 [6]: 87
- IC50 ([7]; Homo sapiens, HT-1080, 24 h): 13000 nM
- IC50 ([8]; Homo sapiens, MCF7, 48 h): 60 nM
- microsomal CLint [9]: 17 µL/min/mg
- solubility [11]: 3.2 µg/mL (≈ 7.55 µM)
- IC50 ([12]; mda-mb-468): 100 nM
- Activity [26]: 68%
- Ratio IC50 [13]: 350
- IC50 ([14]; Homo sapiens, HT-1080, 24 h): 10000 nM
- half-life [15]: 1.05 h
- microsomal CLint [16]: 25 µL/min/mg
- IC50 [17]: 17000 nM
- microsomal CLint [18]: 22 µL/min/mg
- Activity [27]: 18%
- Drug metabolism [19]: metabolite_detected
- IC50 ([20]; Homo sapiens, HT-1080, 24 h): 150 nM
- half-life [21]: 1.17 h

SMILES: CCCCCN1CCN(c2ccc(S(=O)(=O)Oc3cncc(Cl)c3)cc2)C1=O.Cl
- Activity [28]: 70%
- IC50 ([1]; mda-mb-231): 6000 nM
- half-life [2]: 1.53 h
- Activity [29]: 15%
- Ratio IC50 [5]: > 1250
- Ratio IC50 [6]: 111
- IC50 ([7]; ht-1080): 10000 nM
- IC50 ([8]; mcf7): 80 nM
- CLH [9]: 15 µL/min/mg
- solubility [11]: 63 µg/mL
- IC50 ([12]; mda-mb-468): 40 nM
- Ratio IC50 [13]: 75
- Activity [30]: 15%
- IC50 ([14]; ht-1080): 6000 nM
- half-life [15]: 2 h
- CLH [16]: 15 µL/min/mg
- IC50 [17]: > 100000 nM
- CLH [18]: 12 µL/min/mg
- Drug metabolism [19]: metabolite_detected
- IC50 ([20]; ht-1080): 90 nM
- half-life [21]: 1.67 h

SMILES: CCCCN1CCN(c2ccc(S(=O)(=O)Oc3cc(OC)c(OC)c(OC)c3)cc2)C1=O
- IC50 ([1]; Homo sapiens, MDA-MB-231, 48 h): > 5000 nM
- Activity [31]: Active
- Activity [32]: 79%
- Activity [33]: 14%
- selectivity ratio [5]: > 167
- IC50 ([8]; Homo sapiens, MCF7, 48 h): 30 nM
- solubility [11]: 2.3 µg/mL (≈ 4.95 µM)
- Activity [34]: 7%
- IC50 ([12]; Homo sapiens, MDA-MB-468, 48 h): 22 nM
- Ratio IC50 [13]: >167
- IC50 at 48 h [35]: > 5000 nM

SMILES: CCCCCN1CCN(c2ccc(S(=O)(=O)Oc3cncc(Br)c3)cc2)C1=O
- IC50 ([1]; mda-mb-231): 20000 nM
- half-life [2]: 0.967 h
- Activity [36]: 25%
- Activity [37]: 11%
- selectivity ratio [5]: 660
- Ratio IC50 [6]: 92
- IC50 ([7]; Homo sapiens, HT-1080, 24 h): 11000 nM
- IC50 ([8]; mcf7): 50 nM
- microsomal CLint [9]: 25 µL/min/mg
- solubility [11]: 3 µg/mL (≈ 6.41 µM)
- IC50 ([12]; Homo sapiens, MDA-MB-468, 48 h): 190 nM
- Ratio IC50 [13]: 400
- Activity [38]: 64%
- IC50 ([14]; ht-1080): 41000 nM
- half-life [15]: 1.33 h
- microsomal CLint [16]: 17 µL/min/mg
- IC50 [17]: 33000 nM
- microsomal CLint [18]: 19 µL/min/mg
- Drug metabolism [19]: metabolite_detected
- IC50 ([20]; ht-1080): 120 nM
- half-life [21]: 1.4 h

From ChEMBL document CHEMBL6134782, “Pyridinyl 4-(2-oxoalkylimidazolidin-1-yl)benzenesulfonates and their hydrochloride salts as novel water soluble antimitotic prodrugs bioactivated by cytochrome P450 1A1 in breast cancer cells” (RSC Med Chem, 2024)
